Source: patent publication US20260078108A1, “SOLID FORMS OF A ROCK INHIBITOR” (REDX PHARMA PLC, priority 2022, published 2026)

Experiments:
CB1 (h) = target: T1, CB1 (h) (Homo sapiens, UniProt P21554); test: CEREP panel CB1 (h) agonist effect, cAMP HTRF; type: cell-based; settings: HCl salt tested, CHO cells
T1 construct: expressed in transfected cells; host or cells: CHO cells
Excerpt: (§1) The use of in vitro pharmacological screening against a diverse range of targets (receptors, ion channels, enzymes and transporters) is used to identify undesirable off-target activity that may cause adverse drug reactions in humans. Screening panels (e.g. SafetyScreen44™ Panel, Eurofins) comprise a selection of off-targets linked with known issues in humans that could hinder or halt the development of drug candidates or market withdrawal if discovered after a drug is approved. The HCl salts of the S enantiomer and the R enantiomer of compound A were tested against a panel of such targets.
(§2) The tests were carried out according to the methods described in the following tables and indicated literature references.

μ (MOP) (h) [1] = target: T2, μ (MOP) (h) (Homo sapiens, UniProt P35372); test: CEREP panel mu (MOP) (h) agonist effect, cAMP HTRF; type: cell-based; settings: HCl salt tested, CHO cells
T2 construct: expressed in transfected cells; host or cells: CHO cells
T2 sequence (P35372 whole entry): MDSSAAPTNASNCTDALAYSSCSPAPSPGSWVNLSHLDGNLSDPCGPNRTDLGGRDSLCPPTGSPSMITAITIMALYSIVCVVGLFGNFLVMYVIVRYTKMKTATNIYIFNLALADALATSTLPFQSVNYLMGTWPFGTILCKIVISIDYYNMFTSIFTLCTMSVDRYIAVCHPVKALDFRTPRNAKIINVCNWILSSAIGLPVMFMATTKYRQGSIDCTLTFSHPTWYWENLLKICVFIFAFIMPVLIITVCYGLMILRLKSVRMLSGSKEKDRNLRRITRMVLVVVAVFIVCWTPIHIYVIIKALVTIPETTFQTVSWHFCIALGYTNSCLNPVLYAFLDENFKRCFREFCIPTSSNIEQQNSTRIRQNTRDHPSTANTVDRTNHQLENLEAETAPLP
Excerpt: as §1, §2

Haspin = target: T3, Haspin (Homo sapiens, UniProt Q8TF76); test: Kinase panel 33P-ATP filter assay, Haspin; type: biochemical; settings: HCl salt tested; ATP Conc. 20 μM (Km); read-out: Compound IC50 (nM) Haspin
T3 sequence (Q8TF76 1-798): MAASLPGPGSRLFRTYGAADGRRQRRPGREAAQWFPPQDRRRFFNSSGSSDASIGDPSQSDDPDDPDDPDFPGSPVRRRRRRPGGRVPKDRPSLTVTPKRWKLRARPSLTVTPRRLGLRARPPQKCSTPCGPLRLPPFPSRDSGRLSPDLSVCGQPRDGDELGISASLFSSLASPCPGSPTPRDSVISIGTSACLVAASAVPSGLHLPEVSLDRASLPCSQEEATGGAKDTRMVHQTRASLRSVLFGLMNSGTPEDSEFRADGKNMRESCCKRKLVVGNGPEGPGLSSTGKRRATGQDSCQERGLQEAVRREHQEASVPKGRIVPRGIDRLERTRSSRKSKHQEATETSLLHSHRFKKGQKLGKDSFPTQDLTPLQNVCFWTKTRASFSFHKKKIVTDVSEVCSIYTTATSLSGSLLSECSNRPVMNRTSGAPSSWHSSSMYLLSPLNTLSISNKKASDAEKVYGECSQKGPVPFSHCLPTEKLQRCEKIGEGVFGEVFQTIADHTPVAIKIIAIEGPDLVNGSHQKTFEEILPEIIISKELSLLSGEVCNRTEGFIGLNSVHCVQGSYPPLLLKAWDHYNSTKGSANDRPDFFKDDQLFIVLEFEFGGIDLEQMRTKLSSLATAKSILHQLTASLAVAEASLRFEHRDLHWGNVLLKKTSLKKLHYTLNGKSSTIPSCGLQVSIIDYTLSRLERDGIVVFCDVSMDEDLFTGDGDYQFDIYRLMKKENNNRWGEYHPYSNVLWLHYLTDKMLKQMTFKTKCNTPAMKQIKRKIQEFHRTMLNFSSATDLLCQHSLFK
Method: (§3) The HCl salts of S enantiomer and the R enantiomer of compound A were tested against a panel of kinases.
(§4) Compounds were received as powder and resuspended to 10 mM DMSO stock. Compounds were tested in 10-dose IC50 mode with a 3-fold serial dilution starting at 10 μM. Control compound, staurosporine, was tested in 10-dose IC50 mode with 4-fold serial dilution starting at 20 μM.
(§5) Reaction Conditions: Buffer Conditions: 20 mM HEPES ((4-(2-hydroxyethyl)-1-piperazineethanesulfonic acid; pH 7.5), 10 mM MgCl2, 1 mM EGTA (Ethyleneglycol-bis(p-aminoethyl)-N,N,N′,N′-tetraacetic Acid), 0.01% Brij35, 0.02 mg/ml BSA (Bovine serum albumin), 0.1 mM Na3VO4, 2 mM DTT (Dithiothreitol), 1% DMSO. Reaction Procedure: 1. Prepare indicated substrate in freshly prepared reaction buffer. 2. Deliver required cofactors to the substrate solution above. 3. Deliver indicated kinase into the substrate solution and mix gently. 4. Deliver compounds in DMSO into the kinase reaction mixture utilizing acoustic technology (Echo550). 5. Deliver ^33P-ATP (specific activity 0.01 μCi/μl final) into the reaction mixture to initiate the reaction. 6. Incubate kinase reaction for 120 minutes at room temperature. 7. […] Data Analysis: Kinase activity data were expressed as the percent remaining kinase activity in test samples compared to vehicle (dimethyl sulfoxide) reactions. […]

[2] = target: T4, Norepinephrine transporter (Homo sapiens, UniProt P23975); test: CEREP panel norepinephrine transporter uptake (h), [3H]NE incorporation; type: cell-based; settings: HCl salt tested; [3H]NE incorporation into cells
T4 construct: expressed in transfected cells
T4 sequence (P23975 whole entry): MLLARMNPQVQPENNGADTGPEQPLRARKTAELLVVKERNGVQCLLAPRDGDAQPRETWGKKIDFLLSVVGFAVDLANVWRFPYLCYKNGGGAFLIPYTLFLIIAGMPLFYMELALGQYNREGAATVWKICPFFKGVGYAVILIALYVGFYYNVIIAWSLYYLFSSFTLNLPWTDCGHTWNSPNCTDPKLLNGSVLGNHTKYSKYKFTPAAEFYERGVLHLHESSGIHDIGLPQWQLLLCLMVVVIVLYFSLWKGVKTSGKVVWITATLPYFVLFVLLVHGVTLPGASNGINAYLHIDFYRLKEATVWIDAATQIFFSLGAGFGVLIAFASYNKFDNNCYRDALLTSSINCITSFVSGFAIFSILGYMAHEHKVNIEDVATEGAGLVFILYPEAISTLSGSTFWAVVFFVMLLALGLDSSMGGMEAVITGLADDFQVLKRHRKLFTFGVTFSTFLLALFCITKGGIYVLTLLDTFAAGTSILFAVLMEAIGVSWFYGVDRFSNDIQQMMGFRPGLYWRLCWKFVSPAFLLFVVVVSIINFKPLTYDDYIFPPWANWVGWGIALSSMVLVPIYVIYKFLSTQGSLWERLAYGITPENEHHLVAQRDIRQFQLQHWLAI
Excerpt: as §1, §2

μ (MOP) (h) [3] = target: T2, μ (MOP) (h); test: CEREP panel mu (MOP) (h) antagonist effect, cAMP HTRF; type: cell-based; settings: HCl salt tested; CHO cells, DAMGO (10 nM)
Excerpt: as §1, §2

M2 (h) = target: T5, M2 (h) (Homo sapiens, UniProt P08172); test: CEREP panel M2 (h) agonist effect, cAMP HTRF; type: cell-based; settings: HCl salt tested, CHO cells
T5 construct: expressed in transfected cells; host or cells: CHO cells
T5 sequence (P08172 1-466): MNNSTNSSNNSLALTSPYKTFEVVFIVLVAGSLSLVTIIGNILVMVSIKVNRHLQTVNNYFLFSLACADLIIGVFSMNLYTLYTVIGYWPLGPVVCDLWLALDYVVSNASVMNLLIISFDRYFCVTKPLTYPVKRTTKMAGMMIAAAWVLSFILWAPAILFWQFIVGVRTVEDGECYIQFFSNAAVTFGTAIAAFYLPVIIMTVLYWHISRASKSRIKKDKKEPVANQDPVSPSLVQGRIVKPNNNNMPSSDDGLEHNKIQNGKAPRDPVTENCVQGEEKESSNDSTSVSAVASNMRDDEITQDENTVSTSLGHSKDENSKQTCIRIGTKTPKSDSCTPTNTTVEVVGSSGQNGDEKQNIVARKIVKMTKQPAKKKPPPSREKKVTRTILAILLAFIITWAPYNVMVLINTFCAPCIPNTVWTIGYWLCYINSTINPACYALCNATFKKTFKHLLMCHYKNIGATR
Excerpt: as §1, §2

PKCeta = PKCeta (Homo sapiens, UniProt P24723); test: Kinase panel 33P-ATP filter assay, PKCeta; type: biochemical; settings: HCl salt tested; ATP Conc. 15 μM (Km); read-out: Compound IC50 (nM) PKCeta
Chain of PKCeta (P24723 whole entry): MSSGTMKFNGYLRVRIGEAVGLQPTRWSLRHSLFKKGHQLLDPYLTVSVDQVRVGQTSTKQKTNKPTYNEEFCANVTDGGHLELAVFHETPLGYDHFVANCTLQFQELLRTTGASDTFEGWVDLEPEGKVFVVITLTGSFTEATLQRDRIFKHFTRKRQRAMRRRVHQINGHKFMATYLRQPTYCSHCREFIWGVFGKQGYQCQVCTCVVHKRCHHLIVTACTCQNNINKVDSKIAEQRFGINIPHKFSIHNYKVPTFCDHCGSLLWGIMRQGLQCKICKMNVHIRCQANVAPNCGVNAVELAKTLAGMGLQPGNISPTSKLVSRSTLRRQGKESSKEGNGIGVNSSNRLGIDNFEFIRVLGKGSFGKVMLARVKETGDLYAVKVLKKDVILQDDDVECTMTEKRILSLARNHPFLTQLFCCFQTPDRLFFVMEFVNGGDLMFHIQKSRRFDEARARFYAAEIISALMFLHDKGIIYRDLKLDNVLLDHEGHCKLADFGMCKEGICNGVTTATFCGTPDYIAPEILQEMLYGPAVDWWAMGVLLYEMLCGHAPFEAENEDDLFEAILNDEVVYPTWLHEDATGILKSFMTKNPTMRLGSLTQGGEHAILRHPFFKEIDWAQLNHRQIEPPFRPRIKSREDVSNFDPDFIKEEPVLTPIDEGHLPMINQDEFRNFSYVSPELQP
Method: as §3, §4, §5

PKCtheta = PKCtheta (Homo sapiens, UniProt Q04759); test: Kinase panel 33P-ATP filter assay, PKCtheta; type: biochemical; settings: HCl salt tested; ATP Conc. 30 μM (Km); read-out: Compound IC50 (nM) PKCtheta
Chain of PKCtheta (Q04759 whole entry): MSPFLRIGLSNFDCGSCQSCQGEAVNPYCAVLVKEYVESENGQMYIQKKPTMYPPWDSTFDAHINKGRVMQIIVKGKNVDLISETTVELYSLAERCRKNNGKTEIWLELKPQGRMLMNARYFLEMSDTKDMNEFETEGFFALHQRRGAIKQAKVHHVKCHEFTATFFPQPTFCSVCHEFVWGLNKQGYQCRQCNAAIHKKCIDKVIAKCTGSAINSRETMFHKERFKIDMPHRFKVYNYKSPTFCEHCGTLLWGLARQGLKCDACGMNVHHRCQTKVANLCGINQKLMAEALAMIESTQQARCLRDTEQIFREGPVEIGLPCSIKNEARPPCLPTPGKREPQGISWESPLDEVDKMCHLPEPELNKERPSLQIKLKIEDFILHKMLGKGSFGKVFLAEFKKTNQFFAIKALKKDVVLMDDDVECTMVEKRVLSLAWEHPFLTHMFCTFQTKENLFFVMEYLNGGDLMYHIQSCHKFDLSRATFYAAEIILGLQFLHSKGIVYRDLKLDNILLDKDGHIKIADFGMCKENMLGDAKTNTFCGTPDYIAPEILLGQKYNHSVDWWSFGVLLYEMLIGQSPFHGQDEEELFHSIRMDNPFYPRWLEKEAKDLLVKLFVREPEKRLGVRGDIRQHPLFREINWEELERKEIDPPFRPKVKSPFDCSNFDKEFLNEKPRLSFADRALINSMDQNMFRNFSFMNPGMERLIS
Method: as §3, §4, §5

T1 sequence (P21554 whole entry): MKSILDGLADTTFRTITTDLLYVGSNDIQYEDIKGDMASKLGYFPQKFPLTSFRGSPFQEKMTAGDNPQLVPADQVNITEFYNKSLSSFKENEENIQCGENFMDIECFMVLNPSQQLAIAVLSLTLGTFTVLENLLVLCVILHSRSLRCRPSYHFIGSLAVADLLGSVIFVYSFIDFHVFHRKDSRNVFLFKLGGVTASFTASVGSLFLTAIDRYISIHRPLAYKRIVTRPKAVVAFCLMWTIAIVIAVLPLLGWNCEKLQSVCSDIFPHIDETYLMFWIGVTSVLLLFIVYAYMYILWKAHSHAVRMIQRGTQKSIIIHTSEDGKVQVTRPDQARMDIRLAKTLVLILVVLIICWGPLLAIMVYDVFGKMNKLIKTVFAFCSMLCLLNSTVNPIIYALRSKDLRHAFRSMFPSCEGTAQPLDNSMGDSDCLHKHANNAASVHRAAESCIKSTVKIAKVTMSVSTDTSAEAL

CB1 (h) (agonist effect) (EC50) (CB1 (h)) | EC50 (μ (MOP) (h) [1]) [nM] | IC50 (Haspin) [nM] | IC50 [2] [nM] | mu (MOP) (h) (antagonist effect) (IC50) (μ (MOP) (h) [3]) | EC50 (M2 (h)) [nM] | IC50 (PKCeta) [nM] | IC50 (PKCtheta) [nM] | Structure (SMILES)
Inactive | 84000 | 297 | 21000 | Inactive | 93000 | 0.9 | 9.9 | NCc1ccc(C(=O)Nc2ccncc2F)cc1-c1cccc(C(=O)Nc2ccc(SC[C@H]3CCOC3=O)cc2)c1 [S-enantiomer]
Inactive | 3000 | 134 | 8900 | Inactive | > 10000 | < 0.5 | 4.4 | NCc1ccc(C(=O)Nc2ccncc2F)cc1-c1cccc(C(=O)Nc2ccc(SC[C@@H]3CCOC3=O)cc2)c1 [R-enantiomer]
